# Assay: Pharmacokinetic based allometry to human
# Conditions: allometric scaling, body weights 50-115 kg, 95% CI
# Description: Pharmacokinetic based allometry (natural logarithm (ln) transformation) was performed using available pharmacokinetic data (not shown) from various animal species and was used to estimate clearance (CL) and the initial volume of distribution (V1 = Dose/C0; C0 defined as the extrapolated plasma concentration at time zero) in human. Animals had received a single i.v. bolus dose of TRO40303 administered under lipid-based formulations (Intralipid® and liposomes) in rats and pigs or under cremophor EL®/ethanol/saline formulation in dogs and monkeys. The pharmacokinetic parameters were assessed from the mean (for rodents) or individual TRO40303 plasma concentration versus time profiles using a non-compartmental approach “Log Linear Method” (Kinetica™, version 4.4.1). The ln of the CL and the ln of V1 were each plotted against the ln of the animals’ body weight. Finally, using this relationship, the human CL and V1 were estimated based on the human body weight ranging from 50 to 115 kg.
smiles,measurement,value
"CC(C)CCC[C@@H](C)[C@H]1CC[C@H]2[C@@H]3CC/C(=N\O)[C@](C)(CCCO)[C@H]3CC[C@]12C [TRO40303, 3,5-seco-4-nor-cholestan-5-one oxime-3-ol]",predicted human CL,0.883 to 3.97 mL/min/kg
same,predicted human V1,0.089 to 0.741 L/kg
